Experimental data from ChEMBL document CHEMBL5316283, “Discovery of High-Affinity Small-Molecule Binders of the Epigenetic Reader YEATS4” (J Med Chem, 2023).

What was measured:
[1] = target: T1, YEATS domain-containing protein 4 (Homo sapiens, UniProt O95619); assay: Binding affinity to human his-tagged recombinant YEATS4 expressed in Escherichia coli assessed as inhibition constant using biotin tagged lysine 27-crotonylated histone H3 peptide as substrate preincubated for 20 mins followed by substrate addition measured after 30 mins by FRET analysis
T1 sequence (O95619 whole entry, the tested form may be a part): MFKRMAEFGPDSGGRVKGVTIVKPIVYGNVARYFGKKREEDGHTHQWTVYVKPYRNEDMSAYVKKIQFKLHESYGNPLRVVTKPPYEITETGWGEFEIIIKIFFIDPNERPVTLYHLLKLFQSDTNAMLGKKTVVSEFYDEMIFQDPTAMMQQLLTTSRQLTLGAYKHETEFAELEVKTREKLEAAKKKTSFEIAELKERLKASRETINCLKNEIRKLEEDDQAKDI

[2] = Apparent permeability in dog RRCK cells; type: ADME, cell-based, Canis lupus familiaris, MDCKII-LE; details: MDCK
[3] = Intrinsic clearance in human hepatocytes assessed per million cells; type: ADME, cell-based, Hepatocyte; details: read-out: CLH
[4] = target: Voltage-gated inwardly rectifying potassium channel KCNH2 (Homo sapiens, UniProt Q12809); assay: Inhibition of hERG assessed as inhibition constant by patch-clamp assay; type: toxicity
Chain of Voltage-gated inwardly rectifying potassium channel KCNH2 (Q12809 whole entry): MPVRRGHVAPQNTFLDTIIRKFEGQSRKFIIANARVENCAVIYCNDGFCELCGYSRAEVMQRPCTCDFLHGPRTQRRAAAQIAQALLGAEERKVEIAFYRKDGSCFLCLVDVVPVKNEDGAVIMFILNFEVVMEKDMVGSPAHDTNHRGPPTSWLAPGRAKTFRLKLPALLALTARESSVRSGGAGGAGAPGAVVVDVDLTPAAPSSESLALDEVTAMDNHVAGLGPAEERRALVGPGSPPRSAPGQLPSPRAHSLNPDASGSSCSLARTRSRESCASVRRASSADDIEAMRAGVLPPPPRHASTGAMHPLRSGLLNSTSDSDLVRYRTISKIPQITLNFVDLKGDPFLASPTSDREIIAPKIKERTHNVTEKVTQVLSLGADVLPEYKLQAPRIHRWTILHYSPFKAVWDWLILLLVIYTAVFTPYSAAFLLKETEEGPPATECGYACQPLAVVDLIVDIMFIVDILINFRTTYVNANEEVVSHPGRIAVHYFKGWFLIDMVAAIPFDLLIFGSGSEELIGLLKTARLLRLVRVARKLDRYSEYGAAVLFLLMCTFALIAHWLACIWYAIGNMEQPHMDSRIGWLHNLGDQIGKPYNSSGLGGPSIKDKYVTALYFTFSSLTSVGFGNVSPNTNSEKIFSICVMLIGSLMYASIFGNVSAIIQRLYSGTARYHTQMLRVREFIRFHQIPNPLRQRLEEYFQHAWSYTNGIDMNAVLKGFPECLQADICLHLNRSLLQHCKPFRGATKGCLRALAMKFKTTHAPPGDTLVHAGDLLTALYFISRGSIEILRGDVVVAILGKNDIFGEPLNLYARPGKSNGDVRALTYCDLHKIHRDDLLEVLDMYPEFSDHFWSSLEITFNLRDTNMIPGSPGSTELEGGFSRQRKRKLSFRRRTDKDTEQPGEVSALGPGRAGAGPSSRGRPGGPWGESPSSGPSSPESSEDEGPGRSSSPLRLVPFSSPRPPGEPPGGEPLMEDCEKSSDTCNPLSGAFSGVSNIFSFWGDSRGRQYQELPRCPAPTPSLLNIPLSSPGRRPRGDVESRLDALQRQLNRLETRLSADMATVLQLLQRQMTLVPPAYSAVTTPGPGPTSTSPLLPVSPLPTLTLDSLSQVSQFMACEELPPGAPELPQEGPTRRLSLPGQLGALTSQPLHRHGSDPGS

[5] = Cytotoxicity against human THLE cells assessed as inhibition of cell growth by CellTiter-Glo assay; type: toxicity, cell-based
Homo sapiens [6] = species: Homo sapiens; assay: Selectivity ratio of Ki for human recombinant YEATS1 to Ki for human recombinant YEATS4
Homo sapiens [7] = species: Homo sapiens; assay: Selectivity ratio of Ki for human recombinant YEATS2 to Ki for human recombinant YEATS4
Homo sapiens [8] = species: Homo sapiens; assay: Selectivity ratio of Ki for human recombinant YEATS3 to Ki for human recombinant YEATS4
[9] = Lipophilicity, logD of the compound by shake flask method; type: physicochemical; details: octanol/water
[10] = target: T1, YEATS domain-containing protein 4; assay: Inhibition of N-terminal nanoLuc-tagged YEATS4 in HEK293T cells co-transfected with C-terminal halo-tagged histone 3.3 incubated for 24 hrs in presence of SAHA by NanoBRET assay; type: cell-based
[11] = Cytotoxicity against human Bone marrow cell assessed as reduction in cell viability measured after 7 days; type: toxicity, cell-based; details: bone marrow cells
[12] = target: T1, YEATS domain-containing protein 4; assay: Binding affinity to C-terminal biotin-tagged YEATS4 (unknown origin) by SPR analysis
[13] = target: T1, YEATS domain-containing protein 4; assay: Binding affinity to YEATS4 (unknown origin) assessed as dissociation constant by isothermal calorimetric analysis
[14] = Volume of distribution at steady state in rat at 1 mg/kg, iv; type: ADME, organism-based; details: in vivo, read-out: Vdss
[15] = Volume of distribution at steady state in mouse at 1 mg/kg, iv; type: ADME, organism-based; details: in vivo, read-out: Vdss
[16] = Half life in rat at 3 mg/kg, po; type: ADME, organism-based; details: in vivo
[17] = Half life in mouse at 3 mg/kg, po; type: ADME, organism-based; details: in vivo
[18] = Half life in mouse at 100 mg/kg, po; type: ADME, organism-based; details: in vivo
[19] = Cmax in rat at 3 mg/kg, po; type: ADME, organism-based; set-up: dose 3 mg/kg, route po; details: in vivo
[20] = Cmax in mouse at 3 mg/kg, po; type: ADME, organism-based; set-up: dose 3 mg/kg, route po; details: in vivo
[21] = Cmax in mouse at 100 mg/kg, po; type: ADME, organism-based; set-up: dose 100 mg/kg, route po; details: in vivo
[22] = AUC in rat at 3 mg/kg, po; type: ADME, organism-based; set-up: dose 3 mg/kg, route po; details: in vivo
[23] = AUC in mouse at 3 mg/kg, po; type: ADME, organism-based; set-up: dose 3 mg/kg, route po; details: in vivo
[24] = AUC in mouse at 100 mg/kg, po; type: ADME, organism-based; set-up: dose 100 mg/kg, route po; details: in vivo
[25] = Tmax in rat at 3 mg/kg, po; type: ADME, organism-based; details: in vivo
[26] = Tmax in mouse at 3 mg/kg, po; type: ADME, organism-based; details: in vivo
[27] = Tmax in mouse at 100 mg/kg, po; type: ADME, organism-based; details: in vivo
[28] = Oral bioavailability in rat at 3 mg/kg; type: ADME, organism-based; details: in vivo
[29] = Oral bioavailability in mouse at 3 mg/kg; type: ADME, organism-based; details: in vivo
Protein AF-9 = target: T2, Protein AF-9 (Homo sapiens, UniProt P42568); assay: Inhibition of N-terminal nanoLuc-tagged YEATS3 in HEK293T cells co-transfected with C-terminal halo-tagged histone 3.3 incubated for 24 hrs in presence of SAHA by NanoBRET assay; type: cell-based
T2 sequence (P42568 whole entry): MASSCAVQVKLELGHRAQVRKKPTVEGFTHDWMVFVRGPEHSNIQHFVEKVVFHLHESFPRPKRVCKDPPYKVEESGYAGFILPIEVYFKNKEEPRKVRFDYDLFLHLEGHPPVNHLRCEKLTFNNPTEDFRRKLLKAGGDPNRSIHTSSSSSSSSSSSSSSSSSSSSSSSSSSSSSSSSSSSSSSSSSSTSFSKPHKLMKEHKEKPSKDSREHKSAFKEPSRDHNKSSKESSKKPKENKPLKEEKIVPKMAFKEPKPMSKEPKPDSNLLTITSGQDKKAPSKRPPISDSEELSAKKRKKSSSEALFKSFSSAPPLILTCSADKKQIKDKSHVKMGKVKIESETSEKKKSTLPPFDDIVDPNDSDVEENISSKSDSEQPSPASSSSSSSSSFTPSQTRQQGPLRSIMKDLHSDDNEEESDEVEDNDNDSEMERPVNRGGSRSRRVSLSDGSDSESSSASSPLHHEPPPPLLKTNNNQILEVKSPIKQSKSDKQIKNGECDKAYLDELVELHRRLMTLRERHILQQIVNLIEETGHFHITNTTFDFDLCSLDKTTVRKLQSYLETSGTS

[30] = target: T1, YEATS domain-containing protein 4; assay: Binding affinity to YEATS4 (unknown origin) assessed as change in enthalpy by isothermal calorimetric analysis
[31] = target: T1, YEATS domain-containing protein 4; assay: Binding affinity to YEATS4 (unknown origin) assessed as change in entropy by isothermal calorimetric analysis

Row | Compound | Ki [1] [nM] | Papp [2] [×10⁻⁶ cm/s] | hepatocyte CLint [3] [µL/min/1e6 cells] | Ki [4] [nM] | IC50 [5] [nM] | Ratio Ki (Homo sapiens [6]) | Ratio Ki (Homo sapiens [7]) | Ratio Ki (Homo sapiens [8]) | logD [9] | IC50 [10] [nM] | IC50 at 7 days [11] [nM] | Kd [12] [nM] | Kd [13] [nM] | also measured
1 | COC1(CN2CC[C@H](c3c(C)nn4cc(C(=O)NCC5CC5)ccc34)[C@@H](C)C2)CCOCC1 | 57 | 0.248 | 16.4 | 16600 | > 300000 | 213 | 49 | 160 | 2.8 | – | – | – | – | –
2 | CCNC(=O)c1ccc2c(c1)[nH]c(=O)n2C1CCN(CC2(O)CCCCC2)CC1 | 284 | 0.021 | 3.2 | 40200 | > 300000 | 8 | 14 | 7 | 1.7 | – | – | – | – | –
3 | CCNC(=O)c1ccc2c(c1)nc(C(F)F)n2[C@H]1CCN(CC2(O)CCCCC2)C[C@@H]1C | 59 | 0.271 | 12.8 | 35400 | > 300000 | 19 | 17 | 14 | 3.1 | 730 | > 50 | 297 | 45 | Vd [14]: 2.6 L/kg; Vd [15]: 7.8 L/kg; half-life [16]: 1.4 h; half-life [17]: 4.9 h; half-life [18]: 1.2 h; Cmax [19]: 487 ng/mL; Cmax [20]: 1000 ng/mL; Cmax [21]: 14000 ng/mL; AUC [22]: 1150 ng·min/mL; AUC [23]: 2150 ng·min/mL; AUC [24]: 675 ng·h/mL; Tmax [25]: 0.4 h; Tmax [26]: 0.3 h; Tmax [27]: 0.8 h; F [28]: 46%; F [29]: 68%
4 | CCNC(=O)c1ccc2c([C@H]3CCN(CC4(O)CCCCC4)C[C@@H]3C)c(C)nn2c1 | 33 | 0.26 | 4.1 | 4640 | > 300000 | 15 | 10 | 14 | 2.5 | 170 | > 50 | 340 | 52.7 | IC50 (Protein AF-9): 2980 nM; deltaH [30]: -15.1 kcal/mol; deltaH [31]: -17.4 cal/mol.K; half-life [18]: 1.2 h; Cmax [21]: 9140 ng/mL; AUC [24]: 412 ng·h/mL; Tmax [27]: 0.5 h
5 | CCNC(=O)c1ccc2c(c1)nc(C)n2C1CCN(CC2(O)CCCCC2)CC1 | 141 | 0.108 | 2.4 | 28900 | > 300000 | 19 | 11 | 16 | 1.9 | – | – | – | – | –
6 | CCNC(=O)c1ccc2c(C3CCN(CC4(O)CCCCC4)CC3)c(-c3cccn(C)c3=O)nn2c1 | 69 | 0.006 | < 1.8 | 36100 | > 300000 | 19 | 4 | 15 | 0.09 | – | – | – | – | –
7 | Cc1nn2cc(C(=O)NCC3CC3)ccc2c1[C@H]1CCN(CC2(O)CCOCC2)C[C@@H]1C | 43 | 0.154 | < 1.8 | 7380 | 269000 | 133 | 16 | 106 | 2 | – | – | – | – | –
8 | CCNC(=O)c1ccc2c(C3CCN(CC4(O)C5CC6CC(C5)CC4C6)CC3)c(C)nn2c1 (configuration not stated) | 21 | 0.331 | 33.7 | 3430 | 123000 | 19 | 7 | 25 | 3.2 | – | 22 | 103 | 53 | IC50 ([10]; hek293t): 200 nM
9 | CCNC(=O)c1ccc2c(C3CCN(CC4(O)CCCCC4)CC3)c(C)nn2c1 | 56 | 0.246 | 3.2 | 4640 | > 300000 | 20 | 16 | 23 | 2 | – | – | – | – | –
10 | CCNC(=O)c1ccc2c(c1)nc(-c1cccn(C)c1=O)n2[C@H]1CCN(CC2(O)CCCCC2)C[C@@H]1C | 33 | 0.004 | < 1.8 | > 100000 | > 300000 | 5 | 2 | 4 | 1.7 | – | – | – | – | –
11 | CCNC(=O)c1ccc2c([C@H]3CCN(CC4(O)CCOCC4)C[C@@H]3C)c(C)nn2c1 | 37 | 0.093 | < 1.8 | 66600 | > 300000 | 35 | 15 | 27 | 1.6 | 300 | > 50 | – | 30 | deltaH [30]: 13.3 kcal/mol; deltaH [31]: -11.1 cal/mol.K
12 | CCNC(=O)c1ccc2c(c1)nc(C)n2[C@H]1CCN(CC2(O)CCCCC2)C[C@@H]1C | 63 | 0.119 | 5.9 | 22300 | > 300000 | 16 | 17 | 12 | 2.4 | 290 | > 100 | 530 | 80 | –
